Laboratory results reported in patent US11213508B2, “Compositions comprising urolithins and uses thereof for the stimulation of insulin secretion” (Centre National de la Recherche Scientifique (CNRS), priority 2013, dated 2022).
“Also recorded” adds a separate entry of the source.

Experiments:
[1] = system: INS-1 insulin-secreting β-cells; assay: Glucose (8.3 mmol·L^−1)-stimulated insulin secretion in INS-1 cells (HTRF insulin assay); assay type: cell-based; settings: for ability to amplify glucose-stimulated insulin secretion: blind screening, 2 and 20 μM; for % control response (glucose-stimulated insulin secretion): control = glucose alone; for degree of stimulation of insulin secretion: summary over the different insulin secretion conditions in INS-1 cells, 20 μmol·L^−1
Procedure: Cells were seeded in 24-well plates (4×10^5 cells per well) and were used for experiments after 5 days of culture.
(§1) Cells were incubated for 1 h (5% CO2, 37° C.) in KRB medium containing 8.3 mmol·L^−1 glucose (glucose-stimulated secretion) in the presence or absence of the compounds tested. At the end of the 1 h incubation period, the medium was sampled and stored at −20° C. until the insulin assay. Insulin concentration in cell supernatants was determined using the homogeneous time resolved fluorescence technology (HTRF), according to the manufacturer's instructions (HTRF insulin assay kit, Cisbio International, Bagnols-sur-Ceze, France). Briefly, two anti-insulin antibodies were used; one labelled with Eu^3+-Cryptate and one labelled with XL665 recognizing distinct epitopes. When these two fluorophores bind to insulin molecules, the two antibodies come into close proximity, allowing fluorescence resonance energy transfer (FRET) to occur between the Eu^3+-Cryptate and the XL665. This FRET increases proportionally with the insulin concentrations. All the experiments were performed at least in quadruplicate.
For the determination of insulin secretion, cells were incubated for 1 h (5% CO2, 37° C.) in KRB medium containing either 1.4 mmol·L^−1 glucose (low-glucose) or 8.3 mmol·L^−1 glucose (glucose-stimulated secretion) in the presence or absence of the compounds tested. At the end of the 1 h incubation period, mediums were sampled and stored at −20° C. until the insulin assay.

[2] = system: INS-1 insulin-secreting β-cells; assay: Glibenclamide-stimulated insulin secretion in INS-1 cells; assay type: cell-based; settings: for stimulation of insulin secretion in the presence of glibenclamide: 0 to 20 μmol·L^−1
Procedure: (§2) The insulin-secreting cell line INS-1 (a gift from Professor C. B. Wollheim) was cultured in RPMI-1640, supplemented with 10% fetal calf serum (FCS), 100 U·mL^−1 penicillin, 100 μg·mL^−1 streptomycin, 2 mmol·L^−1 L-glutamine, 10 mmol·L^−1 HEPES, 1 mmol·L^−1 sodium pyruvate, and […] 2-mercaptoethanol, as previously described by Youl et al. (2010). Cells were seeded in 24-well plates (4×10^5 cells per well) and were used for experiments after 5 days of culture.
as §1, with “Before the treatment, RPMI medium was removed and the cells were washed twice with HEPES-balanced Krebs-Ringer bicarbonate buffer (KRB) containing (in mmol·L^−1): 123 NaCl, 5.4 KCl, 1.3 KH2PO4, 2.7 MgSO4, 2.9 CaCl2, 5 NaHCO3 and 20 HEPES, pH 7.5, with 2 g·L^−1 bovine serum albumin (KRB/BSA). Cells” for “Cells”
Material and methods were the same as described in example 1. For the determination of insulin secretion, cells were incubated for 1 h (5% CO2, 37° C.) in KRB medium containing 1.4 mmol·L^−1 glucose (low-glucose condition) and 0.01 μmol·L^−1 glibenclamide (glibenclamide-stimulated secretion), in the presence or absence of urolithins. At the end of the 1 h incubation period, the medium was sampled and stored at −20° C. until the insulin assay. Insulin concentration in cell supernatants was determined as described in Example 1.

[3] = system: rat isolated perfused pancreas; assay: Insulin secretion in the rat isolated perfused pancreas; settings: for AUC of insulin produced above the basal level: urolithins 10 μM
Procedure: Pancreas was isolated from male Wistar rats of 250-300 g body weight under pentobarbital anaesthesia (60 mg/kg i.p.). Previously described technique (Cadene et al., 1996) was used to isolate the pancreas from neighboring tissues. The organ was then transferred into a plastic chamber maintained at 37.5° C. Perfusion medium was Krebs-Ringer bicarbonate buffer containing 2 g/l bovine serum albumin and 5 mmol·L^−1 (non stimulant condition) or 8.3 mmol·L^−1 (stimulant condition) glucose, and continuously bubbled with a mixture of 95% O2/5% CO2. Infusion pressure was selected to provide a pancreatic outflow of 2.5 ml/min. The first sample was taken 30 min after initiation of perfusion to allow for an adaptation period. Two additional control samples were collected 10 and 15 min later, immediately followed by switching to the same buffer containing urolithins (10 μmol·L^−1). Pancreatic effluents were then collected at the following times (minutes): 17, 18, 19, 20, 21, 27, 32, 42. Pancreas was then washed using the same buffer in the absence of urolithin. Two additional samples were taken 5 and 15 min after urolithin withdrawal.
All samples were collected for 1 min allowing determinations of pancreatic effluent output, and immediately frozen for insulin assay (Cisbio HTRF method). Insulin output rate (ng/min) was calculated by multiplying the hormone concentration (ng/ml) in the effluent by the corresponding flow rate (ml/min).
Amplitude of stimulation of insulin secretion by urolithins was estimated by calculating the Area Under the Curve (AUC) of insulin produced above the basal level (trapezoidal rule). Before administration of urolithins, insulin secretion levels were 3.39±0.58 ng/min (n=14 pancreases) and 67.5±7.80 ng/min (n=15 pancreases), for 5 mmol·L^−1 and 8.3 mmol·L^−1 glucose, respectively.

[4] = system: INS-1 insulin-secreting β-cells; assay: Exendin + glucose-stimulated insulin secretion in INS-1 cells; assay type: cell-based; settings: 8.3 mmol·L^−1 glucose + 0.001 μmol·L^−1 exendin; for maximal response, stimulation as compared to exendin alone: 20
Procedure: as §2
as §1, with “Before the treatment, RPMI medium was removed and the cells were washed twice with HEPES-balanced Krebs-Ringer bicarbonate buffer (KRB) containing (in mmol·L^−1): 123 NaCl, 5.4 KCl, 1.3 KH2PO4, 2.7 MgSO4, 2.9 CaCl2, 5 NaHCO3 and 20 HEPES, pH 7.5, with 2 g·L^−1 bovine serum albumin (KRB/BSA). Cells” for “Cells”
Material and methods were the same as described in example 1. For the determination of insulin secretion, cells were incubated for 1 h (5% CO2, 37° C.) in KRB medium containing 8.3 mmol·L^−1 glucose (glucose-stimulated condition) and exendin (0.001 μmol·L^−1) in the presence or absence of the compounds tested. Data were expressed as percent of exendin (0.001 μmol·L^−1)+glucose (8.3 mmol·L^−1)-stimulated insulin secretion (“control 100%”) (FIGS. 4A-D).

[5] = compound 2 μM, 8.3 mmol·L^−1 glucose
[6] = compound 20 μM, 8.3 mmol·L^−1 glucose
[7] = 1.4 mmol·L^−1 glucose + 0.01 μmol·L^−1 glibenclamide

| Structure (SMILES) | ability to amplify glucose-stimulated insulin secretion ([1]; 8.3 mmol·L^−1 glucose) | % control response (glucose-stimulated insulin secretion) [1, 5] | % control response (glucose-stimulated insulin secretion) [1, 6] | degree of stimulation of insulin secretion [1] | stimulation of insulin secretion in the presence of glibenclamide [2] | concentration at which maximal effect was obtained [2, 7] | AUC of insulin produced above the basal level [3] | raise of insulin secretion in the presence of exendin and glucose [4] | active concentration ([1]; glucose-stimulated secretion condition, active at this concentration only) | maximal response, stimulation as compared to glibenclamide alone [2, 7] | stimulation of insulin secretion at the maximal concentration tested ([1]; 8.3 mmol·L^−1 glucose, control 100% = glucose alone) | EC50 [2, 7] | stimulation of glibenclamide-induced response ([2]; urolithin 5 μmol·L^−1, 1.4 mmol·L^−1 glucose + 0.01 μmol·L^−1 glibenclamide) | effect on insulin secretion under non-stimulating glucose condition ([3]; 10 μmol·L^−1, 5 mmol·L^−1 glucose) | effect on insulin secretion under stimulating glucose condition ([3]; 10 μmol·L^−1, 8.3 mmol·L^−1 glucose) | lowest concentration inducing some stimulation of insulin secretion ([3]; stimulating glucose condition) | maximal response, stimulation as compared to exendin alone [4] |
| --- | --- | --- | --- | --- | --- | --- | --- | --- | --- | --- | --- | --- | --- | --- | --- | --- | --- |
| O=c1oc2cc(O)ccc2c2ccc(O)cc12 [Urolithin A, urolithin A] | able to amplify | 109.82% | 162.50% | about 160% | concentration-dependently stimulated insulin secretion | 5 µmol/L | 2609.5 ng insulin secreted for 32 min | did not induce a significant raise of insulin secretion; also recorded: did not amplify exendin-stimulated insulin secretion |  |  |  |  |  |  |  |  |  |
| O=c1oc2cc(O)ccc2c2ccccc12 [Urolithin B, urolithin B] | able to amplify | 108.77% | 145.61% | 140% | concentration-dependently stimulated insulin secretion |  | 142.0 ng insulin secreted for 32 min | did not induce a significant raise of insulin secretion; also recorded: did not amplify exendin-stimulated insulin secretion | 20 µM | 130% |  |  |  |  |  |  |  |
| O=c1oc2cc(O)ccc2c2cc(O)c(O)cc12 [Urolithin C, urolithin C] | able to amplify | 107.14% | 194.64% | 185-200% | concentration-dependently stimulated insulin secretion |  | 9160.0 ng insulin secreted for 32 min | induced a significant concentration-dependent stimulation of insulin secretion |  | about 200% | about 200% | ~5 µM | about 150% | had no effect | induced a major amplification | 1 µM | about 185% |
| O=c1oc2c(O)c(O)ccc2c2cc(O)c(O)cc12 [Urolithin D, urolithin D] | able to amplify | 88.79% | 158.62% | 135-155% | concentration-dependently stimulated insulin secretion |  | 387.5 ng insulin secreted for 32 min | induced a significant concentration-dependent stimulation of insulin secretion |  |  |  |  |  |  |  |  | 140% |
